Source: US11976062B2, “Benzisoxazole compound” (OSAKA UNIVERSITY, priority 2018, dated 2024)
Each block holds one compound with its values, some of them ahead of it.

Assays:
TRPC6 channel [1] = molecular target: T1, TRPC6 channel (Homo sapiens, UniProt Q9Y210); assay: Calcium assay using HEK293 cells transiently expressing TRPC6 channel, carbachol activation (Fura-2); format: cell-based; conditions: 10 μM test compound, carbachol; for amount of increase in calcium ions relative to control (DMSO) taken as 100%: TRPC6-expressing cells
T1 construct: expressed in transfected cells; host or cells: HEK293
T1 sequence (Q9Y210 1-931): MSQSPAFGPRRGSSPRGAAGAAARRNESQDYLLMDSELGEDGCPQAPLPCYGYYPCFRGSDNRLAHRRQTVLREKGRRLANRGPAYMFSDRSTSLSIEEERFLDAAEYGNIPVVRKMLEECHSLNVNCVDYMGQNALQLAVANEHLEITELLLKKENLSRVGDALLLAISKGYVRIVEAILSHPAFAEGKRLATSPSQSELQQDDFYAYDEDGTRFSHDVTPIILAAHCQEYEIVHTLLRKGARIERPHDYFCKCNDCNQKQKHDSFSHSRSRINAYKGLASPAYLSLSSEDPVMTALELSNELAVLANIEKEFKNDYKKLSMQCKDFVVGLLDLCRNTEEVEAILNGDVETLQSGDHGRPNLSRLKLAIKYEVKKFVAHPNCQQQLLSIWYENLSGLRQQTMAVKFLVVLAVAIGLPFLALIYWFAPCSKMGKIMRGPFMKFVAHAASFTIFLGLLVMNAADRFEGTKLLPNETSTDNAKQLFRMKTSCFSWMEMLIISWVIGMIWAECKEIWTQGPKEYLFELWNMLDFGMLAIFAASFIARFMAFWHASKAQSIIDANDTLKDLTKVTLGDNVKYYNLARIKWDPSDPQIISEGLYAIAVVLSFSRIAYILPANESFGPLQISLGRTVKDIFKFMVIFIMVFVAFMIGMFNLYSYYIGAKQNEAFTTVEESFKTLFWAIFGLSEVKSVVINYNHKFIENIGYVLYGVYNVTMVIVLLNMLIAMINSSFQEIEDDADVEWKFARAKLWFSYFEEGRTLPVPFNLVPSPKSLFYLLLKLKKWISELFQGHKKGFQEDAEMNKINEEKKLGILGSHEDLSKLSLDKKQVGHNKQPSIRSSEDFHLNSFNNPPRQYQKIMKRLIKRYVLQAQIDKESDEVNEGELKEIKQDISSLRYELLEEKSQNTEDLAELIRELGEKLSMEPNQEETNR
Experimental: A TRPC6 gene was introduced into HEK293 cells (cells derived from human fetal kidney) by lipofection, and the TRPC6 channel was expressed on the cell membrane. Specifically, the plasmid DNA of TRPC6 (pCI-neo; Promega Corporation) was introduced into HEK293 cells using a lipofection reagent, and then cultured at 37° C. for 24 to 48 hours to express the TRPC6 channel on the cell membrane. In the same manner, HEK293 cells into which the TRPC3 gene was introduced were cultured, and the TRPC3 channel was expressed on the cell membrane.
The cultured cells were peeled off with trypsin and seeded on a cover glass again, followed by culturing the cells at 37° C. for 3 hours again. A Fura-2 AM calcium indicator was added to the medium, and the cells were cultured at 37° C. for 30 minutes to allow the cells to incorporate the indicator. For the extracellular solution, a Ca^2+-containing solution and a Ca^2+-free solution were prepared. • Ca^2+-containing solution: 2 mM CaCl2, 132 mM NaCl, 4 mM KCl, 1 mM MgCl2, 5 mM glucose, 5 mM HEPES (pH 7.4) • Ca^2+-free solution: 132 mM NaCl, 4 mM KCl, 1 mM MgCl2, 5 mM glucose, 5 mM HEPES (pH 7.4)
After the cells were added to the Ca^2+-containing solution, the following operation was performed while the fluorescence intensity (510 nm) of Fura-2 was measured at room temperature with an ARGUS CA-20 (Hamamatsu Photonics K.K.) over time. • 0 minutes: TRPC3-expressing cells or TRPC6-expressing cells are placed in a measurement chamber that contains the Ca^2+-containing solution. • After 30 seconds: The Ca^2+-containing solution is replaced with the Ca^2+-free solution. • After 1 minute: A predetermined amount of a test compound is added to the Ca^2+-free solution. • After 3 minutes: Carbachol (100 μM) is added to the Ca^2+-free solution. • After 7 minutes: The Ca^2+-free solution is replaced with the Ca^2+-containing solution that contains a test compound and carbachol […]. • After 15 minutes: Measurement is ended.
Compound 011 was used as the test compound, and the amount of the test compound added was 0.01, 0.1, 0.5, 1.0, 5.0, 10, or 50 μM. For the control, 0.1% DMSO was used in place of the test compound. Carbachol (cch) is a TRPC-channel-activating reagent. Applying carbachol to cells opens the TRPC channel and allows a large amount of Ca^2+ in the extracellular solution to flow into the cells. Fura-2 AM has high cell membrane permeability due to the presence of an AM group (acetoxymethyl group), and is thus easily incorporated into the cells. The AM group is hydrolyzed in the cells to become Fura-2. Thus, Fura-2 can form a chelate with Ca^2+ and is also unlikely to leak out of the cells due to the loss of the AM group.
In the same manner as in Test Example 1, the maximum calcium ion concentration was measured after 7 minutes from the start of measurement (i.e., after replacement with the Ca^2+-containing solution) by using TRPC6-expressing cells prepared in the same manner as in Test Example 1, except that 10 μM of Pyr 4 and 10 μM of compound 011, 031, 041, or 191 (test compound) were used. The average value of calcium ion concentrations up to 30 seconds after the start of measurement (the initial value of calcium ion concentration) was subtracted from the maximum calcium ion concentration, and the calculated value was determined to be the amount of increase in calcium ions. FIG. 3 illustrates the results.
The calcium ion concentration was measured in the same manner as in Test Example 2, except that 10 μM of compound 011, 361, 362(E), 362(Z), 371, 372(Z), 381, or 401 (test compound) was used, and Pyr 4 was not used, thereby determining the amount of increase in calcium ions. Table 2 illustrates the amount of increase in calcium ions for each test compound relative to the amount of increase in calcium ions in the control (DMSO) taken as 100%.

TRPC6 channel [2] = molecular target: T1, TRPC6 channel; assay: Calcium assay using HEK293 cells transiently expressing TRPC6 channel, ATP as activating reagent; format: cell-based; conditions: 10 μM test compound
Experimental: In the same manner as in Test Example 2, the calcium ion concentration was measured, except that 10 μM of Pyr 4 and 10 μM of compound 202(E), 061, or 071 (test compound) were used, and ATP was used as a TRPC channel activating reagent instead of carbachol, thereby determining the amount of increase in calcium ions. FIG. 4 illustrates the results.

[3] = tested on: cardiac fibrosis induced by pressure overload; conditions: mice, NPL 1 and 2; cited from earlier work

SMILES: Clc1ccccc1N1CCN(c2noc3cccc(Cl)c23)CC1 [Compound 061, 4-chloro-3-(4-(2-chlorophenyl)piperazin-1-yl)benzo[d]isoxazole]
suppression of TRPC6 channel activation (decrease in calcium ion influx, FIG. 4) (TRPC6 channel [2]): activation of the TRPC6 channel was suppressed

SMILES: O=C(O)c1cnc(N2CC3CCC(C2)N3c2noc3cccc(C(F)(F)F)c23)c(Cl)c1 [Compound 191, 5-chloro-6-(8-(4-(trifluoromethyl)benzo[d]isoxazol-3-yl)-3,8-diazabicyclo[3,2,1]octan-3-yl)nicotinic acid]
suppression of TRPC6 channel activation (decrease in calcium ion influx, FIG. 3) (TRPC6 channel [1]): activation of the TRPC6 channel was suppressed

SMILES: CCOC(=O)c1cnn(-c2ccc(NC(=O)C(Cl)=C(Cl)Cl)cc2)c1C(F)(F)F [Pyr3]
suppression of cardiac fibrosis induced by pressure overload [3]: potently suppresses cardiac fibrosis induced by pressure overload

SMILES: O/N=C(\c1cccc(Cl)c1Cl)N1CCN(c2ccccc2Cl)CC1 [Compound 202(E), (E)-(4-(2-chlorophenyl)piperazin-1-yl)(2,3-dichlorophenyl)methanone oxime]
suppression of TRPC6 channel activation (decrease in calcium ion influx, FIG. 4) (TRPC6 channel [2]): activation of the TRPC6 channel was suppressed

SMILES: C[C@@H]1CN(c2ncc(C(=O)O)cc2Cl)CCN1c1noc2cccc(C(F)(F)F)c12 [Compound 041, (R)-5-chloro-6-(3-methyl-4-(4-(trifluoromethyl)benzo[d]isoxazol-3-yl)piperazin-1-yl) nicotinic acid]
suppression of TRPC6 channel activation (decrease in calcium ion influx, FIG. 3) (TRPC6 channel [1]): activation of the TRPC6 channel was suppressed

SMILES: Clc1cccnc1N1CCN(c2noc3cccc(Cl)c23)CC1 [Compound 071, 4-chloro-3-(4-(3-chloropyridin-2-yl)piperazin-1-yl)benzo[d]isoxazole]
suppression of TRPC6 channel activation (decrease in calcium ion influx, FIG. 4) (TRPC6 channel [2]): activation of the TRPC6 channel was suppressed

SMILES: C[C@H]1CN(c2ncc(C(=O)O)cc2Cl)CCN1c1noc2cccc(C(F)(F)F)c12 [Compound 031, (S)-5-chloro-6-(3-methyl-4-(4-(trifluoromethyl)benzo[d]isoxazol-3-yl)piperazin-1-yl) nicotinic acid]
suppression of TRPC6 channel activation (decrease in calcium ion influx, FIG. 3) (TRPC6 channel [1]): activation of the TRPC6 channel was suppressed

The next lines start with the values.

amount of increase in calcium ions relative to control (DMSO) taken as 100% (TRPC6 channel [1]): 61%
SMILES: CCOC(=O)c1cnc(N2CCN(c3noc4cccc(C(F)(F)F)c34)CC2=O)c(Cl)c1 [Compound 371, ethyl 5-chloro-6-(2-oxo-4-(4-(trifluoromethyl)benzo[d]isoxazol-3-yl)piperazin-1-yl) nicotinate]

amount of increase in calcium ions relative to control (DMSO) taken as 100% (TRPC6 channel [1]): 72%
SMILES: FC(F)(F)c1cccc2onc(N3CC=C(c4ccccc4Cl)CC3)c12 [Compound 361, 3-(4-(2-chlorophenyl)-3,6-dihydropyridin-1(2H)-yl)-4-(trifluoromethyl)benzo[d]isoxazole]

amount of increase in calcium ions relative to control (DMSO) taken as 100% (TRPC6 channel [1]): 57%
SMILES: O=C(O)c1cnc(N2CCN(c3noc4cccc(C(F)(F)F)c34)CC2=O)c(Cl)c1 [Compound 381, 5-chloro-6-(2-oxo-4-(4-(trifluoromethyl)benzo[d]isoxazol-3-yl)piperazin-1-yl)nicotinic acid]

amount of increase in calcium ions relative to control (DMSO) taken as 100% (TRPC6 channel [1]): 54%
SMILES: O/N=C(/c1c(F)cccc1C(F)(F)F)N1CC=C(c2ccccc2Cl)CC1 [Compound 362(Z), (Z)-(4-(2-chlorophenyl)-3,6-dihydropyridin-1(2H)-yl)(2-fluoro-6-(trifluoromethyl)phenyl)methanone oxime]

amount of increase in calcium ions relative to control (DMSO) taken as 100% (TRPC6 channel [1]): 72%
SMILES: CCOC(=O)c1cnc(N2CCN(/C(=N\O)c3c(F)cccc3C(F)(F)F)CC2=O)c(Cl)c1 [Compound 372(Z), ethyl (Z)-5-chloro-6-(4-((2-fluoro-6-(trifluoromethyl)phenyl)(hydroxyimino)methyl)-2-oxopiperazin-1-yl)nicotinate]

amount of increase in calcium ions relative to control (DMSO) taken as 100% (TRPC6 channel [1]): 19%
SMILES: O=C(O)c1ccc(C2=CCN(c3noc4cccc(C(F)(F)F)c34)CC2)c(Cl)c1 [Compound 401, 3-chloro-4-(1-(4-(trifluoromethyl)benzo[d]isoxazol-3-yl)-1,2,3,6-tetrahydropyridin-4-yl)benzoic acid]

amount of increase in calcium ions relative to control (DMSO) taken as 100% (TRPC6 channel [1]): 65%
SMILES: O/N=C(\c1c(F)cccc1C(F)(F)F)N1CC=C(c2ccccc2Cl)CC1 [Compound 362(E), E-(4-(2-chlorophenyl)-3,6-dihydropyridin-1(2H)-yl)(2-fluoro-6-(trifluoromethyl)phenyl)methanone oxime]
